From patent US20250243218A1, “NOVEL CARBAMATE COMPOUND AND USE THEREOF” (CHENGDU SHIBEIKANG BIOMEDICAL TECHNOLOGY CO., LTD., priority 2022, published 2025)

Key:
[1] = tested on: ear marginal vein of the rabbit; test: Vascular irritation assay; assay type: in vivo
Experimental: Four Japanese Big-Ear White Rabbit (about 2 kg), 2♀/2♂ (2 Female/2 Male)
The intra-individual left/right comparison method was used. The compound 2 low dose injection and compound 2 high dose injection groups were set, with 2 rabbits in each group, half male and half female. The compound 2 injections were administered by injection into the ear marginal veins of right ears of the rabbits in the compound 2 low and high dose groups, with administration doses of 2.5 mg/kg and 7.5 mg/kg, respectively, and with the same administration volume of 5 ml/kg; and the corresponding administration concentrations were 0.5 mg/ml and 1.5 mg/ml, respectively. The same administration volume of sodium chloride injection as the negative control was administered by injection into the ear marginal veins of left ears of the rabbits in the compound 2 low and high dose groups. The administration was carried out by intravenous infusion for 30 min. […] The administration was performed once daily for a total of 7 consecutive days.
At 72 h and at the end of a 14-day recovery period after the final administration, half of the animals in each group […] were sacrificed, respectively. Marginal ear tissue samples were cut from the injection site and the proximal end of the marginal ear vein respectively and collected. The injection sites were observed by naked eyes for the response conditions to irritation. The obtained tissues were fixed with 10% neutral formalin and conventionally sectioned for histopathological examination.

hERG potassium channel = biological target: T1, hERG potassium channel (Homo sapiens, UniProt Q12809); test: cell-based; conditions: manual patch-clamp, stably overexpressed hERG channel; read-out: IC50 (μM), inhibition of cardiac hERG potassium channel
T1 construct: expressed in transfected cells
T1 sequence (Q12809 whole entry): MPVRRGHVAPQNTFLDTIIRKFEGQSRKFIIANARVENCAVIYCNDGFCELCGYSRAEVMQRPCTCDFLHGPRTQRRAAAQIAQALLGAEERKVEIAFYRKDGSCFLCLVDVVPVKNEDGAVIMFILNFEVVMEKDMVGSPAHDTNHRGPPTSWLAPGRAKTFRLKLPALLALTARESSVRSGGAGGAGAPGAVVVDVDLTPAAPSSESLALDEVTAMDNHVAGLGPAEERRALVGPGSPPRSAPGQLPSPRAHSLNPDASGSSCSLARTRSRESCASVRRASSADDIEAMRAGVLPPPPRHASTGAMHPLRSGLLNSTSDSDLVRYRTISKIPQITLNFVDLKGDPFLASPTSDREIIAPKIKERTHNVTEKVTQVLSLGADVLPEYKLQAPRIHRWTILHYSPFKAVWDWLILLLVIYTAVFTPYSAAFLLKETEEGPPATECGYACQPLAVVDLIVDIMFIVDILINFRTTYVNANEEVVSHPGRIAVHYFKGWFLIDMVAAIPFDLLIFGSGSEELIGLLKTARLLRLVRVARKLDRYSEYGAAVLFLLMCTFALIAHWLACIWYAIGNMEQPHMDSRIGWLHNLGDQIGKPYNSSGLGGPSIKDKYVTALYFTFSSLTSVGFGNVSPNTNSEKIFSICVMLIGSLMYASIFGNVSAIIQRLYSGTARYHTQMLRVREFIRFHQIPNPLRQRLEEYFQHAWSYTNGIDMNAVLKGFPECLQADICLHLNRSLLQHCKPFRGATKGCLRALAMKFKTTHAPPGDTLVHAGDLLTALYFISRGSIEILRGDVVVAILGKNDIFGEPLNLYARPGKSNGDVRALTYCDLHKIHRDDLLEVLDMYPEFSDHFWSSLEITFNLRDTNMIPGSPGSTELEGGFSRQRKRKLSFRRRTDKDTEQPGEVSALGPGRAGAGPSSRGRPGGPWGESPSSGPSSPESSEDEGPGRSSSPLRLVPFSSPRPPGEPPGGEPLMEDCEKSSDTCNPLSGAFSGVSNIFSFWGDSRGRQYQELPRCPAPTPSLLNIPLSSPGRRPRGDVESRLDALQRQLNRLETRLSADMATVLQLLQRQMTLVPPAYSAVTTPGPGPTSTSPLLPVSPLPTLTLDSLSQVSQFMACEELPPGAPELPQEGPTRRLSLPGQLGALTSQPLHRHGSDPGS
Excerpt: Test Example 2: Effect of Compounds on Current in Stably Overexpressed hERG Channel

[2] = Influencing factor test (high temperature, high humidity, light); assay type: physicochemical
Experimental: Test Methods: The samples of the compound 2 and comparative example 2 (Vicagrel) were weighed and placed in weighing bottles, respectively, and the weighing bottles were placed under the conditions of high temperature (60° C.), high humidity (RH 80%), and light (5000 Lux), respectively.

[3] = tested on: ADP-induced platelet aggregation in rats; test: Antiplatelet aggregation effect: ADP-induced platelet aggregation in PRP of rats after iv administration; assay type: in vivo; conditions: single iv at the same molar dose, blood 3 h after administration, ADP final 20 μM
Excerpt: 1. Test objective: Evaluation and comparison of the antiplatelet aggregation treatment effect of each compound after administration at the same molar amount
70 rats were randomly and evenly grouped into 7 groups, i.e., solvent control group, comparative example 1 (2-Oxo-clopidogrel) group, comparative example 2 (Vicagrel) group, compound 1 group, compound 2 group, compound 7 group and compound 8 group.
Rats were anesthetized by intraperitoneal injection of 1.5% sodium pentobarbital.
The anesthetized animals were transferred to an operating platform.
The rats were injected with anesthetic, and fixed on the operating platform in a supine position after the whole body of the rat became soft. After routine disinfection, the abdomen of the rat was incised along the abdominal midline using surgical scissors to open the abdominal cavity. The adipose tissue around the blood vessels was gently separated with a small forceps, and the excess adipose tissue covering the blood vessels was then wiped and removed with the cotton ball to make the blood vessels clearly visible (the abdominal aorta is located anterior to the vertebral column, and the abdominal vein appears thicker and darker in color than the abdominal aorta). The blood vessel was first fixed to prevent it from moving as much as possible. The left thumb and index finger fixed the adipose tissue and other organs on both sides of the blood vessel, while the ring finger pressed on the blood vessel at the upper end of the needle insertion point to lower the blood pressure, which can prevent blood spurting. The puncture needle was held with the right hand, with the bevel of the needle tip facing downward. The needle was inserted at an angle of about 30 degrees and advanced towards the heart to a suitable depth of about 5 mm. Once the blood had started to enter the needle via its tip, the other end of the blood collection needle was inserted into the vacuum tube. After the insertion of needle, the needle tip could be clamped with a hemostatic clip to prevent it from puncturing the blood vessel if the rat struggled due to insufficient anesthesia.
Three hours after the administration, the rats were anesthetized with sodium pentobarbital. Then blood was collected from the abdominal aorta, added with 3.8% sodium citrate (1:9) as an anticoagulant, mixed evenly and centrifuged at 200 g for 10 min. The supernatant was harvested to obtain the platelet-rich plasma (PRP), and the residual plasma was then centrifuged at 1600 g for 15 min to obtain the resulting supernatant as platelet-poor plasma (PPP).
Platelet aggregation rate was measured using a platelet aggregometer (model: Agg RAM, Helena, USA). The PPPs corresponding to the PRPs to be tested in each channel were first used to correct the light transmission, and the PPPs were removed after the correction. A cuvette added with 225 μl of PRP to be tested was then placed in each channel, and added with a stirrer, then ADP (with a final concentration of 20 μM). The platelet aggregometer immediately began to measure the platelet aggregation rate.

[4] = Pharmacokinetic study in SD rats, 2-Oxo-clopidogrel in plasma by LC/MS/MS; assay type: in vivo; conditions: 2-Oxo-clopidogrel in plasma, SD rats, single dose at same molar amount (Table 3: iv.; text: gavage), n = 6, mean ± SD
Excerpt: After being administered via single gavage at the same molar amount, the pharmacokinetic characteristics of each compound were investigated, and the main pharmacokinetic parameters were compared.
Each test compound was accurately weighed separately into a clean drug container, dissolved with appropriate amount of Solutol, shaken by vortex, added with purified water, ultrasonicated, and shaken by vortex until the compound was completely dissolved. All the formulations were freshly prepared on the day of administration.
Thirty healthy adult SD rats were administered via gavage.
Grouping and Fasting: SD rats were randomly grouped, with 6 rats per group, and administered with the corresponding compounds via gavage according to Table 3.
Sample Collection and Processing: 0.2 ml of blood was collected at different time points of before (0 h) and 5 min, 15 min, 30 min, 1 h, 2 h, 4 h, 8 h, and 24 h after the administration. After the anticoagulation with EDTA-K2 was completed, the blood was centrifuged at 4° C. for 5 min, and then the plasma was separated and stored at −80° C. for later measurement.
Measurement: The blood drug concentration of 2-Oxo-clopidogrel in all PK plasma samples was measured by LC/MS/MS method, and the pharmacokinetic parameters of individual compounds were calculated by using software WinNonlin 7.2.

rabbit blood cells = test: In vitro hemolysis test; assay type: cell-based; conditions: compound 2 injection, 2% red blood cell suspension
Experimental: One Adult Big White-Eared Rabbit (Male)
(1) After the rabbit was anesthetized by injection of sodium pentobarbital via the marginal ear vein at about 30 mg/kg, about 20 ml of blood was collected from the heart into an appropriate container.
(2) A stirrer (or glass bead) was placed in the container, the blood was stirred at a slow speed for a few minutes to remove the fibrinogen in the blood so as to obtain defibrinated blood.
(3) About 10 times the amount of physiological saline was added, mixed evenly by shaking and aliquoted into centrifuge tubes. The tubes were centrifuged at 1000 to 2000 rpm for 15 min (the rotational speed and time for centrifugation could be adjusted according to the post-centrifugation situation due to the difference of centrifuge tubes in size), and then the supernatants were removed.
(5) The obtained red blood cells were prepared into a 2% suspension with physiological saline.

Solubility study = assay type: physicochemical; conditions: 25° C. to 30° C.
Experimental: Samples of the example compound 2 and comparative example 2 (Vicagrel) were accurately weighed. Under the condition of 25° C. to 30° C., 1 ml of physiological saline and 1 ml of a buffer (pH 1.2) were taken, and added with 10 mg of each compound, respectively. The compound 2 of the present disclosure had excellent solubility, which can satisfy the demand for the formulation into an injection with an effective concentration in clinical, while the solubility of the comparative example 2 was extremely low and it cannot satisfy the demand for injection, and the addition of additional solubilizer may pose potential safety risks.

**Q.** With `COC(=O)[C@H](c1ccccc1Cl)N1CCc2sc(OC(=O)N3CCN(C)CC3)cc2C1.O=C(O)/C=C/C(=O)O` [Compound 2, (S)-5-(1-(2-chlorophenyl)-2-methoxy-2-oxyethyl)-4,5,6,7-tetrahydrothieno[3,2-c]pyridin-2-yl 4-methylpiperazine-1-carboxylate fumarate] as the compound, how does the “vascular irritation effect on the ear marginal vein of the rabbit (overall determination)” value ([1]; high concentration 1.5 mg/ml) read?
**A.** no vascular irritation effect

**Q.** What about the “observation of ear marginal vein on the administered side at day 2 of the recovery period” value ([1]; high concentration 1.5 mg/ml, naked eyes) of the same compound?
**A.** congestion of the ear marginal vein on the administered side was observed by naked eyes

**Q.** What about the “vascular irritation effect on the ear marginal vein of the rabbit (overall)” value ([1]; low concentration 0.5 mg/ml, observed by naked eyes) of the same compound?
**A.** no vascular irritation effect

**Q.** And the IC50 (hERG potassium channel)?
**A.** 18.6 µM

**Q.** And the “change in content, appearance and shape” value ([2]; 10 days under each of high temperature, high humidity and light)?
**A.** little change in content and no obvious change in appearance and shape

**Q.** And the “content, Day 0” value ([2]; Day 0)?
**A.** 98.39%

**Q.** And the “content, High humidity (Day 10)” value ([2]; high humidity (RH 80%), 10 days)?
**A.** 97.83%

**Q.** And the “content, High temperature (Day 10)” value ([2]; high temperature (60° C.), 10 days)?
**A.** 97.84%

**Q.** What about the “content, Light (Day 10)” value ([2]; light (5000 Lux), 10 days) of the same compound?
**A.** 96.09%

**Q.** What about the “Platelet aggregation rate (%)” value ([3]; solvent control 76.06 ± 3.29) of the same compound?
**A.** 21.18 ± 8.51 %

**Q.** And the “Platelet aggregation rate (%)” value ([3]; solvent control 76.06 ± 3.29, listed as compound 2)?
**A.** 21.18±8.51%

**Q.** And the “AUC0-last (h*ng/ml)” value [4]?
**A.** 110.15 ± 32.62** h*ng/ml

**Q.** What about the “Cmax” value [4] of the same compound?
**A.** 76.82 ± 21.69 ng/mL

**Q.** What about the “T1/2” value [4] of the same compound?
**A.** 1.98 ± 0.25 h

**Q.** What about the “Tmax” value [4] of the same compound?
**A.** 0.45 ± 0.13 h

**Q.** And the “hemolysis of rabbit blood cells” value (rabbit blood cells; high concentration 2.5 mg/ml)?
**A.** neither the compound 2 injection at low concentration (0.5 mg/ml) nor the compound 2 injection at high concentration (2.5 mg/ml) caused hemolysis

**Q.** And the “hemolysis of rabbit blood cells” value (rabbit blood cells; low concentration 0.5 mg/ml)?
**A.** neither the compound 2 injection at low concentration (0.5 mg/ml) nor the compound 2 injection at high concentration (2.5 mg/ml) caused hemolysis

**Q.** What about the “Solubility, pH 1.2 buffer” value (Solubility study; 10 mg compound added to 1 ml buffer (pH 1.2)) of the same compound?
**A.** >10 mg

**Q.** And the “Solubility, Physiological saline(1 ml)” value (Solubility study; 10 mg compound added to 1 ml physiological saline)?
**A.** >10 mg
